Laboratory results reported in patent US11986532B2 (Arvinas Operations, Inc., priority 2021, dated 2024).

Biological target: T1, BCL6 (Homo sapiens, UniProt P41182)
T1 construct: endogenous in cells; host or cells: T47D breast cancer epithelial cells
Assay: Immunofluorescence protocol for high content imaging of BCL6 (degradation) in T47D cells, 3 days compound treatment
Assay type: cell-based
Details: T47D cells, 3 days compound treatment; for DC50: read-out: Mean DC50 (nM)* category; for Dmax: read-out: Mean Dmax (%)** category
Procedure, shortened: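 T47D cells in RPMI1640-10% FBS were treated with an 11-point 3-fold dilution series (final top 0.1 or 1 μM) for 3 days at 37° C. After PFA fixation and Triton permeabilization, cells were immunostained with rabbit anti-BCL6 (1:300, overnight 4° C), Alexa-488 secondary, CellMask-647 and Hoechst, then imaged at 10×, 4 fields/well.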

Row | SMILES | DC50 | Dmax
1 | CNC(=O)COc1cc2cc(Nc3nc(N4CCN(CC5CCN(c6cc(F)cc7c6CN(C6CCC(=O)NC6=O)C7=O)CC5)CC4)ncc3Cl)ccc2n(C(C)C)c1=O (stereo not shown) [Compound 105, 2-{[6-({5-chloro-2-[4-({1-[2-(2,6-dioxopiperidin-3-yl)-6-fluoro-1-oxo-2,3-dihydro-1H-isoindol-4-yl]piperidin-4-yl}methyl)piperazin-1-yl]pyrimidin-4-yl}amino)-2-oxo-1-(propan-2-yl)-1,2-dihydroquinolin-3-yl]oxy}-N-methylacetamide] | < 10 nM | 50 to 70%
2 | CNC(=O)COc1cc2cc(Nc3nc(N4CCC(F)(CN5CC6(CCN(c7cc8c(cc7F)C(=O)N(C7CCC(=O)NC7=O)C8)CC6)C5)CC4)ncc3Cl)ccc2n(C(C)C)c1=O (stereo not shown) [Compound 106] | < 10 nM | 50 to 70%
3 | CNC(=O)COc1cc2cc(Nc3nc(N4CCC(O[C@H]5CC[C@H](N(C)C6CN(c7ccc8c(c7)C(=O)N(C7CCC(=O)NC7=O)C8=O)C6)CC5)CC4)ncc3Cl)ccc2n(C(C)C)c1=O (stereo partly shown) [Compound 107, 2-[(6-{[5-chloro-2-(4-{[(1r,4r)-4-({1-[2-(2,6-dioxopiperidin-3-yl)-1,3-dioxo-2,3-dihydro-1H-isoindol-5-yl]azetidin-3-yl}(methyl)amino)cyclohexyl]oxy}piperidin-1-yl)pyrimidin-4-yl]amino}-2-oxo-1-(propan-2-yl)-1,2-dihydroquinolin-3-yl)oxy]-N-methylacetamide] | < 10 nM | 50 to 70%
4 | CNC(=O)COc1cc2cc(Nc3nc(N4CCC(O[C@H]5CC[C@H](N(C)C6CN(c7cccc8c7C(=O)N(C7CCC(=O)NC7=O)C8=O)C6)CC5)CC4)ncc3Cl)ccc2n(C(C)C)c1=O (stereo partly shown) [Compound 108, 2-[(6-{[5-chloro-2-(4-{[(1r,4r)-4-({1-[2-(2,6-dioxopiperidin-3-yl)-1,3-dioxo-2,3-dihydro-1H-isoindol-4-yl]azetidin-3-yl}(methyl)amino)cyclohexyl]oxy}piperidin-1-yl)pyrimidin-4-yl]amino}-2-oxo-1-(propan-2-yl)-1,2-dihydroquinolin-3-yl)oxy]-N-methylacetamide] | < 10 nM | 50 to 70%
5 | CNC(=O)COc1cc2cc(Nc3nc(N4CCC5(CCN(CC6(F)CCN(c7cc(F)cc8c7CN(C7CCC(=O)NC7=O)C8=O)CC6)CC5)CC4)ncc3Cl)ccc2n(C(C)C)c1=O (stereo not shown) [Compound 109, 2-{[6-({5-chloro-2-[9-({1-[2-(2,6-dioxopiperidin-3-yl)-6-fluoro-1-oxo-2,3-dihydro-1H-isoindol-4-yl]-4-fluoropiperidin-4-yl}methyl)-3,9-diazaspiro [5.5]undecan-3-yl]pyrimidin-4-yl}amino)-2-oxo-1-(propan-2-yl)-1,2-dihydroquinolin-3-yl]oxy}-N-methylacetamide] | < 10 nM | 50 to 70%
6 | CNC(=O)COc1cc2cc(Nc3nc(N4CCC(O[C@H]5CC[C@@H](N6CCC(c7ccc8c(c7)C(=O)N(C7CCC(=O)NC7=O)C8=O)CC6)CC5)CC4)ncc3Cl)ccc2n(C(C)C)c1=O (stereo partly shown) [Compound 110, 2-[(6-{[5-chloro-2-(4-{[(1s,4s)-4-{4-[2-(2,6-dioxopiperidin-3-yl)-1,3-dioxo-2,3-dihydro-1H-isoindol-5-yl]piperidin-1-yl}cyclohexyl]oxy}piperidin-1-yl)pyrimidin-4-yl]amino}-2-oxo-1-(propan-2-yl)-1,2-dihydroquinolin-3-yl)oxy]-N-methylacetamide] | ≥ 100 nM | ≥ 70%
7 | CNC(=O)COc1cc2cc(Nc3nc(N4CCC(CN5CCC6(CC5)CN(c5ccc7c(c5)C(=O)N(C5CCC(=O)NC5=O)C7=O)C6)CC4)ncc3Cl)cc(F)c2n(C(C)C)c1=O (stereo not shown) [Compound 111, 2-{[6-({5-chloro-2-[4-({2-[2-(2,6-dioxopiperidin-3-yl)-1,3-dioxo-2,3-dihydro-1H-isoindol-5-yl]-2,7-diazaspiro[3.5]nonan-7-yl}methyl)piperidin-1-yl]pyrimidin-4-yl}amino)-8-fluoro-2-oxo-1-(propan-2-yl)-1,2-dihydroquinolin-3-yl]oxy}-N-methylacetamide] | < 10 nM | 50 to 70%
8 | CNC(=O)COc1cc2cc(Nc3nc(N4CCN(C(C)(C)C5CCN(c6cc7c(cc6OC)C(=O)N(C6CCC(=O)NC6=O)C7)CC5)CC4)ncc3Cl)ccc2n(C(C)C)c1=O (stereo not shown) [Compound 112, 2-{[6-({5-chloro-2-[4-(2-{1-[2-(2,6-dioxopiperidin-3-yl)-6-methoxy-1-oxo-2,3-dihydro-1H-isoindol-5-yl]piperidin-4-yl}propan-2-yl)piperazin-1-yl]pyrimidin-4-yl}amino)-2-oxo-1-(propan-2-yl)-1,2-dihydroquinolin-3-yl]oxy}-N-methylacetamide] | < 10 nM | 50 to 70%
9 | CNC(=O)COc1cc2cc(Nc3nc(N4CCN(CC5(F)CCN(c6ccc7c(c6)CN(C6CCC(=O)NC6=O)C7=O)CC5)CC4)ncc3Cl)ccc2n(C(C)C)c1=O (stereo not shown) [Compound 113, 2-{[6-({5-chloro-2-[4-({1-[2-(2,6-dioxopiperidin-3-yl)-1-oxo-3H-isoindol-5-yl]-4-fluoropiperidin-4-yl}methyl)piperazin-1-yl]pyrimidin-4-yl}amino)-1-isopropyl-2-oxoquinolin-3-yl]oxy}-N-methylacetamide] | < 10 nM | 50 to 70%
10 | CNC(=O)COc1cc2cc(Nc3nc(N4CCN(CC5(F)CCN(c6cccc7c6CN(C6CCC(=O)NC6=O)C7=O)CC5)CC4)ncc3Cl)ccc2n(C(C)C)c1=O (stereo not shown) [Compound 114, 2-{[6-({5-chloro-2-[4-({1-[2-(2,6-dioxopiperidin-3-yl)-1-oxo-2,3-dihydro-1H-isoindol-4-yl]-4-fluoropiperidin-4-yl}methyl)piperazin-1-yl]pyrimidin-4-yl}amino)-2-oxo-1-(propan-2-yl)-1,2-dihydroquinolin-3-yl]oxy}-N-methylacetamide] | < 10 nM | 50 to 70%
11 | CNC(=O)COc1cc2cc(Nc3nc(N4CCC(CN5CC6(CCN(c7cc8c(c(OC)c7)C(=O)N(C7CCC(=O)NC7=O)C8)CC6)C5)CC4)ncc3Cl)ccc2n(C(C)C)c1=O (stereo not shown) [Compound 115, 2-{[6-({5-chloro-2-[4-({7-[2-(2,6-dioxopiperidin-3-yl)-7-methoxy-1-oxo-2,3-dihydro-1H-isoindol-5-yl]-2,7-diazaspiro[3.5]nonan-2-yl}methyl)piperidin-1-yl]pyrimidin-4-yl}amino)-2-oxo-1-(propan-2-yl)-1,2-dihydroquinolin-3-yl]oxy}-N-methylacetamide] | < 10 nM | 50 to 70%
12 | CNC(=O)COc1cc2cc(Nc3nc(N4CCC(O[C@H]5C[C@H](N6CCC(c7c(F)cc8c(c7F)CN(C7CCC(=O)NC7=O)C8=O)CC6)C5)CC4)ncc3Cl)ccc2n(C(C)C)c1=O (stereo partly shown) [Compound 116, 2-({6-[(5-chloro-2-{4-[(1r,3r)-3-{4-[2-(2,6-dioxopiperidin-3-yl)-4,6-difluoro-1-oxo-2,3-dihydro-1H-isoindol-5-yl]piperidin-1-yl}cyclobutoxy]piperidin-1-yl}pyrimidin-4-yl)amino]-2-oxo-1-(propan-2-yl)-1,2-dihydroquinolin-3-yl}oxy)-N-methylacetamide] | < 10 nM | 50 to 70%
13 | CNC(=O)COc1cc2cc(Nc3nc(N4CCC(O[C@H]5CC[C@H](N6CCC(c7ccc8c(c7)C(=O)N(C7CCC(=O)NC7=O)C8=O)CC6)CC5)CC4)ncc3Cl)ccc2n(C(C)C)c1=O (stereo partly shown) [Compound 117, 2-[(6-{[5-chloro-2-(4-{[(1r,4r)-4-{4-[2-(2,6-dioxopiperidin-3-yl)-1,3-dioxo-2,3-dihydro-1H-isoindol-5-yl]piperidin-1-yl}cyclohexyl]oxy}piperidin-1-yl)pyrimidin-4-yl]amino}-2-oxo-1-(propan-2-yl)-1,2-dihydroquinolin-3-yl)oxy]-N-methylacetamide] | < 10 nM | 50 to 70%
14 | CNC(=O)COc1cc2cc(Nc3nc(N4CCN(CC5CCN(c6cc(OC)cc7c6CN(C6CCC(=O)NC6=O)C7=O)CC5)CC4)ncc3Cl)ccc2n(C(C)C)c1=O (stereo not shown) [Compound 119, 2-{[6-({5-chloro-2-[4-({1-[2-(2,6-dioxopiperidin-3-yl)-6-methoxy-1-oxo-2,3-dihydro-1H-isoindol-4-yl]piperidin-4-yl}methyl)piperazin-1-yl]pyrimidin-4-yl}amino)-2-oxo-1-(propan-2-yl)-1,2-dihydroquinolin-3-yl]oxy}-N-methylacetamide] | < 10 nM | 50 to 70%
15 | CNC(=O)COc1cc2cc(Nc3nc(N4CCN(CC5CCN(c6ccc(F)c7c6CN(C6CCC(=O)NC6=O)C7=O)CC5)CC4)ncc3Cl)ccc2n(C(C)C)c1=O (stereo not shown) [Compound 120, 2-{[6-({5-chloro-2-[4-({1-[2-(2,6-dioxopiperidin-3-yl)-7-fluoro-1-oxo-2,3-dihydro-1H-isoindol-4-yl]piperidin-4-yl}methyl)piperazin-1-yl]pyrimidin-4-yl}amino)-2-oxo-1-(propan-2-yl)-1,2-dihydroquinolin-3-yl]oxy}-N-methylacetamide] | < 10 nM | 50 to 70%
16 | CNC(=O)COc1cc2cc(Nc3nc(N4CCN(CC5CCN(c6ccc(OC)c7c6CN(C6CCC(=O)NC6=O)C7=O)CC5)CC4)ncc3Cl)ccc2n(C(C)C)c1=O (stereo not shown) [Compound 121, 2-{[6-({5-chloro-2-[4-({1-[2-(2,6-dioxopiperidin-3-yl)-7-methoxy-1-oxo-2,3-dihydro-1H-isoindol-4-yl]piperidin-4-yl}methyl)piperazin-1-yl]pyrimidin-4-yl}amino)-2-oxo-1-(propan-2-yl)-1,2-dihydroquinolin-3-yl]oxy}-N-methylacetamide] | < 10 nM | 50 to 70%
17 | CNC(=O)COc1cc2cc(Nc3nc(N4CCC(F)(CN5CC6(CCN(c7ccc8c(c7)CN(C7CCC(=O)NC7=O)C8=O)CC6)C5)CC4)ncc3Cl)ccc2n(C(C)C)c1=O (stereo not shown) [Compound 122, 2-{[6-({5-chloro-2-[4-({7-[2-(2,6-dioxopiperidin-3-yl)-1-oxo-2,3-dihydro-1H-isoindol-5-yl]-2,7-diazaspiro[3.5]nonan-2-yl}methyl)-4-fluoropiperidin-1-yl]pyrimidin-4-yl}amino)-2-oxo-1-(propan-2-yl)-1,2-dihydroquinolin-3-yl]oxy}-N-methylacetamide] | < 10 nM | 50 to 70%
